Assay results: patent publication US20250214993A1, “AROMATIC RING COMPOUND AND USE THEREOF” (SHANGHAI SHIJIANG BIOTECHNOLOGY CO., LTD, priority 2022, published 2025)

What was measured:
Type in all cases: cell-based
[1] = system: Con-NCI-H82 cell; assay: Cell viability (Promega CellTiter-Glo, intracellular ATP), IC50 on Con-NCI-H82 cell; details: Homo sapiens; normal untreated NCI-H82 cell (control)
Excerpt: (§1) The expression of NNMT protein in NCI-H82 cell was overexpressed by inserting the NNMT gene into NCI-H82 cell using a viral vector, and the NNMT protein-overexpressing NCI-H82 cell (ov-NNMT NCI-H82 cell) was obtained. The normal and untreated NCI-H82 cell (Con-NCI-H82 cell) was used as control. The expressing content of NNMT protein in the ov-NNMT NCI-H82 cell and Con-NCI-H82 cell was detected using Western Blot assay (as shown in FIG. 1), it could be seen from FIG. 1 that the NNMT protein was overexpressed in the ov-NNMT NCI-H82 cell compared with the expression level of NNMT protein in the Con-NCI-H82 cell.
(§2) The cell viability was detected using the Promega CellTiter-Glo kit which reflected cell viability by measuring intracellular ATP content. The Con-NCI-H82 cell and ov-NNMT NCI-H82 cell was cultured in 10% fetal bovine serum-containing RPMI1640 medium (+P/S).

[2] = system: mPTP-active Daoy cell; assay: Cell viability (Promega CellTiter-Glo), IC50 on mPTP-active Daoy cell; details: Homo sapiens; Daoy cell transfected with empty virus vector
[3] = system: ov-NNMT NCI-H82 cell; assay: Cell viability (Promega CellTiter-Glo, intracellular ATP), IC50 on NNMT-overexpressing NCI-H82 cell; details: Homo sapiens; NCI-H82 cell overexpressing NNMT protein
Excerpt: as §1, §2

[4] = system: mPTP-inactive Daoy cell; assay: Cell viability (Promega CellTiter-Glo), IC50 on mPTP-inactive Daoy cell (PPIF shRNA); details: Homo sapiens; Daoy cell transfected with PPIF shRNA vector

SMILES	IC50 [1] [nM]	IC50 [2] [µM]	IC50 [3] [nM]	IC50 [4] [nM]
O=C1c2ccc(OC(F)(F)F)cc2CCC1[n+]1ccc2c(c1)CC(c1ccccc1)N2 (stereo not drawn) [AB27101]	750	5.68	2310	1930
Cc1ccc(C(=O)C[n+]2ccc3c(c2)CCN3Cc2ccccc2)cc1 [AB24995]	920	6.32	4150	1980
Cc1ccc(C(=O)C[n+]2ccc(N3CCc4ccccc43)cc2C)cc1 [AB27306]	737	9.91	5460	3230
O=C1c2cc(Cl)ccc2CCC1[n+]1ccc2cn(Cc3ccccc3)cc2c1 (stereo not drawn) [AB27197]	174	3.57	1700	1020
O=C(Cn1c(Cl)cc2c[n+](Cc3ccccc3)ccc21)c1cccc(C(F)(F)F)c1 [AB27487]	31	0.57	496	220
Cc1ccc2c(c1)CCC(n1ncc3c[n+](Cc4ccccc4)ccc31)C2=O (stereo not drawn) [AB31777]	128	6.99	1990	1230
Cc1cn(Cc2ccccc2)c2cc[n+](C3CCc4ccc(F)cc4C3=O)cc12 (stereo not drawn) [AB27470]	112	3.23	2430	930
Cc1c2ccn(Cc3ccccc3)c2cc[n+]1C1CCc2ccc(Cl)cc2C1=O (stereo not drawn) [AB27219]	85	5.09	1320	2120
O=C1c2cc(Cl)ccc2CCC1[n+]1ccc2c(c1)c(Cl)cn2Cc1ccccc1 (stereo not drawn) [AB27172]	203	3.94	2040	1380
O=C1c2cc(Cl)ccc2CCC1[n+]1ccc(NCc2ccccc2)nc1 (stereo not drawn) [AB27138]	1100	8.82	9820	3620
Cc1ccc2c(c1)CCC(n1ccc3c[n+](Cc4ccccc4)ccc31)C2=O (stereo not drawn) [AB27193]	9	0.17	154	30
Cc1ccc(C(=O)C[n+]2ccc(NCc3ccccc3)cc2C)c(F)c1 [AB27325]	22	2.01	268	380
CN1c2nc[n+](C3CCc4ccc(Cl)cc4C3=O)cc2CCC1c1ccccc1 (stereo not drawn) [AB27198]	700	7.55	3550	1890
Cc1c(C)n(CC(=O)c2cccc(OC(F)(F)F)c2)c2cc[n+](Cc3ccccc3)cc12 [AB27492]	174	3.75	1490	1210
O=C1c2cc(Cl)ccc2CCC1[n+]1cnc2c(ccn2Cc2ccccc2)c1 (stereo not drawn) [AB27140]	182	3.66	1580	1480
CC(c1ccccc1)n1cc2cc[n+](C3CCc4ccc(Cl)cc4C3=O)cc2c1 (stereo not drawn) [AB27481]	228	2.72	2730	650
Cc1cn(C2CCc3ccc(Cl)cc3C2=O)c2cc[n+](Cc3ccccc3)cc12 (stereo not drawn) [AB27188]	14	0.23	214	40
Cc1cn(Cc2ccccc2)c2cc[n+](C3CCc4ccc(OC(F)(F)F)cc4C3=O)cc12 (stereo not drawn) [AB27175]	226	3.86	2860	1230
O=C1c2sccc2CCC1[n+]1ccc2c(ccn2Cc2ccccc2)c1 (stereo not drawn) [AB27200]	1120	6.03	5680	2150
O=C1c2cc(OC(F)(F)F)ccc2CCC1n1ccc2c[n+](Cc3ccccc3)ccc21 (stereo not drawn) [AB27191]	10	0.25	184	40

SMILES	IC50 [1] [nM]	IC50 [2] [µM]	IC50 [3] [nM]	IC50 [4] [nM]
O=C(C[n+]1ccc2c(c1)CCC(c1ccccc1)N2)c1ccc(OC(F)(F)F)cc1 (stereo not drawn) [AB27103]	1480	8.98	11000	4090
CC(c1ccccc1)[n+]1ccc2c(ccn2C2CCc3ccoc3C2=O)c1 (stereo not drawn) [AB27205]	2790	–	9490	–
O=C1c2sc(Cl)nc2CCC1[n+]1ccc2c(ccn2Cc2ccccc2)c1 (stereo not drawn) [AB27254]	3590	–	12700	–
O=C(Cn1cnc2c[n+](Cc3ccccc3)ccc21)c1cccc(C(F)(F)F)c1 [AB31703]	2140	–	12300	–
Cc1ccc(C(=O)C[n+]2ccc(NCc3ccccc3)c3ccccc32)cc1 [AB27272]	776	–	5480	–
Cc1ccc(C(=O)CN(CC(=O)c2ccc(C)cc2)c2cc[n+](Cc3ccccc3)cc2)cc1 [AB27299]	674	–	1840	–
Cc1ccc(C(=O)C[n+]2ccc3c(Cc4ccccc4)cn(C)c3c2)cc1 [AB27341]	3590	–	10500	–
CC(c1ccccc1)c1cn(C)c2c[n+](C3CCc4ccc(Cl)cc4C3=O)ccc12 (stereo not drawn) [AB27186]	1990	–	5690	–
Cc1cn(CC(=O)c2cccc(F)c2)c2cc[n+](C(C)c3ccccc3)cc12 (stereo not drawn) [AB27479]	258	–	2050	–
Cc1ccc2c(c1)C(=O)C(n1ncc3c[n+](Cc4ccccc4)ccc31)CC2 (stereo not drawn) [AB31776]	146	–	2550	–
Cc1cc(NCc2ccccc2)cc[n+]1CC(=O)c1ccc(OC(F)(F)F)cc1 [AB27274]	664	–	4530	–
Cc1ccc(C[n+]2ccc3c(ccn3C3CCc4ccc(Cl)cc4C3=O)c2)cc1 (stereo not drawn) [AB27240]	15	–	285	–
Cc1ccc(C(=O)C[n+]2ccc3c(Cc4ccccc4)cn(C)c3c2C)cc1 [AB27343]	2040	–	5870	–
Cc1ccc(C(=O)C[n+]2ccc(NCc3ccccc3)cc2C(C)C)cc1 [AB27237]	39	–	525	–
CCC(c1ccccc1)[n+]1ccc2c(ccn2C2CCc3ccc(Cl)cc3C2=O)c1 (stereo not drawn) [AB27246]	18	–	308	–
CC(c1ccccc1)[n+]1ccc2c(ccn2C2CCc3ccsc3C2=O)c1 (stereo not drawn) [AB27199]	446	–	4830	–
O=C1c2occc2CCC1[n+]1ccc2c(ccn2Cc2ccccc2)c1 (stereo not drawn) [AB27206]	2540	–	7620	–
CCCCCn1ccc2c[n+](C3CCc4ccc(Cl)cc4C3=O)ccc21 (stereo not drawn) [AB27250]	51	–	684	–
Cc1ccc2c(c1)C(=O)C([n+]1ccc3cn(Cc4ccccc4)cc3c1)CC2 (stereo not drawn) [AB27287]	198	–	2540	–
O=C1c2cc(Cl)ccc2CCC1[n+]1ccc2c(c1)CCC(c1ccccc1)N2 (stereo not drawn) [AB27134]	3350	–	12400	–

SMILES	IC50 [1] [nM]	IC50 [2] [µM]	IC50 [3] [nM]	IC50 [4] [nM]
O=C1c2ccc(C(F)(F)F)cc2CCC1[n+]1ccc(NCc2ccccc2)cc1 (stereo not drawn) [AB27110]	996	–	5040	–
Cc1cc2c[n+](Cc3ccccc3)ccc2n1CC(=O)c1ccc(OC(F)(F)F)cc1 [AB27358]	83	–	1090	–
Cc1cccc(C[n+]2ccc3c(ccn3C3CCc4ccc(Cl)cc4C3=O)c2)c1 (stereo not drawn) [AB27241]	14	–	184	–
Cc1ccc(C(=O)C[n+]2ccc(NCc3ccc(C)nc3)cc2C)cc1 [AB27330]	5110	–	13500	–
O=C1c2cc(Cl)ccc2CCC1[n+]1ccc2c(ccn2S(=O)(=O)c2ccccc2)c1 (stereo not drawn) [AB27215]	1610	–	10800	–
Cc1ccccc1C[n+]1ccc2c(ccn2C2CCc3ccc(Cl)cc3C2=O)c1 (stereo not drawn) [AB27242]	15	–	204	–
Cc1ccc(C(=O)C[n+]2ccc3cn(Cc4ccccc4)cc3c2)cc1 [AB27296]	396	–	3580	–
Cc1nc2c(s1)C(=O)C([n+]1ccc3c(ccn3Cc3ccccc3)c1)CC2 (stereo not drawn) [AB27204]	3450	–	13400	–
Cc1c(Cl)c2c[n+](Cc3ccccc3)ccc2n1C1CCc2ccc(Cl)cc2C1=O (stereo not drawn) [AB27485]	504	–	7100	–
Cc1ccc(C(=O)C[n+]2ccc3c(c2)CCN3c2ccccc2)cc1 [AB24994]	810	–	2990	–
Cc1ccc(C(=O)C[n+]2ccc(NCc3ccccc3)cc2C2CC2)cc1 [AB27238]	151	–	1150	–
Cc1c(C)n(CC(=O)c2cccc(C(F)(F)F)c2)c2cc[n+](Cc3ccccc3)cc12 [AB27493]	281	–	3450	–
CCCC(=O)N(Cc1ccccc1)c1cc[n+](CC(=O)c2ccc(C)cc2)cc1 [AB27234]	1270	–	6960	–
Cc1ccc(C(=O)C[n+]2ccc(NCc3cccc(C)n3)cc2C)cc1 [AB27328]	2800	–	8470	–
Cc1ccc(C(=O)C[n+]2ccc(NCc3ccccc3)c(C)c2C)cc1 [AB27278]	21	–	284	–
Cc1cn(CC(=O)c2cccc(Cl)c2)c2cc[n+](C(C)c3ccccc3)cc12 (stereo not drawn) [AB27270]	401	–	3690	–
Cc1cc2c[n+](Cc3ccccc3)ccc2n1C1CCc2ccc(F)cc2C1=O (stereo not drawn) [AB27473]	81	–	1210	–
O=C1c2cc(C(F)(F)F)ccc2CCC1[n+]1ccc2cn(Cc3ccccc3)cc2c1 (stereo not drawn) [AB27288]	344	–	2490	–
Cc1ccc(C(=O)C[n+]2ccc(NCc3ccccc3)cc2C)cc1C [AB27327]	67	–	1040	–
Cc1ccc(C(=O)CN(C)c2cc[n+](Cc3ccccc3)cc2)cc1 [AB27285]	364	–	1350	–
